In US10336761B2, “TGFβ receptor antagonist” (BRISTOL-MYERS SQUIBB COMPANY, priority 2015, dated 2019):

Target: HIS-TGFβR1 T204D (Homo sapiens (Human), UniProt P36897, T204D)
Assay: HTRF probe-displacement assay, HIS-TGFβR1 T204D
Assay type: binding
Conditions: 1 hour at room temperature

HIS-TGFβR1 T204D, sequence (P36897 34-503 T204D): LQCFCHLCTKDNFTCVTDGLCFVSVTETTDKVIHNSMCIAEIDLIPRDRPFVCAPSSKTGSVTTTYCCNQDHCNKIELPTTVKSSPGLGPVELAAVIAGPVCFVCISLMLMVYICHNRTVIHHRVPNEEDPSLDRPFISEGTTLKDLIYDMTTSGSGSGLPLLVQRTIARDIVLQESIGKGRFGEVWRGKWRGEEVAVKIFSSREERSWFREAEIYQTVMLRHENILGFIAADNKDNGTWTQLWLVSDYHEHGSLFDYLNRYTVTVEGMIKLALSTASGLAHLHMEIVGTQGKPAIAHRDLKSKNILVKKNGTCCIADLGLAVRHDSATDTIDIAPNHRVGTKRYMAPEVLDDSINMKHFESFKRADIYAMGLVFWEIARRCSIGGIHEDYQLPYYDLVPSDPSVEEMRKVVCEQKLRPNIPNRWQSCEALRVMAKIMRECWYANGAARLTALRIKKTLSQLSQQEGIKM

Compound	IC50 [nM]
COc1cccc(-c2nc(Nc3ccncc3F)c3cc(CNC[C@@H](F)C(C)(C)O)cn3n2)n1 [Example 208, (3R)-3-fluoro-4-[({4-[(3-fluoropyridin-4-yl)amino]-2-(6-methoxypyridin-2-yl)pyrrolo[2,1-f][1,2,4]triazin-6-yl}methyl)amino]-2-methylbutan-2-ol]	880
Fc1cnccc1Nc1nc(-c2ccc[nH]2)nn2cccc12 [Example 89, 3-fluoro-N-[2-(1H-pyrrol-2-yl)pyrrolo[2,1-f][1,2,4]triazin-4-yl]pyridin-4-amine]	190
Cn1nccc1-c1nc(Nc2ccncc2F)c2cccn2n1 [Example 10, 3-fluoro-N-[2-(1-methyl-1H-pyrazol-5-yl)pyrrolo[2,1-f][1,2,4]triazin-4-yl]pyridin-4-amine]	610
Cc1cccc(-c2nc(Nc3ccncc3)c3cc(C(N)=O)cn3n2)n1 [Example 219, 2-(6-methylpyridin-2-yl)-4-[(pyridin-4-yl)amino]pyrrolo[2,1-f][1,2,4]triazine-6-carboxamide]	10
COc1cccc(-c2nc(Nc3ccnc(NCCN4CCC(F)(F)CC4)c3)c3cccn3n2)n1 [Example 34, 2-N-[2-(4,4-difluoropiperidin-1-yl)ethyl]-4-N-[2-(6-methoxypyridin-2-yl)pyrrolo[2,1-f][1,2,4]triazin-4-yl]pyridine-2,4-diamine]	480
COc1cccc(-c2nc(Nc3ccncc3F)c3cc(/C=C/CCO)cn3n2)n1 [Example 211, (3E)-4-{4-[(3-fluoropyridin-4-yl)amino]-2-(6-methoxypyridin-2-yl)pyrrolo[2,1-f][1,2,4]triazin-6-yl}but-3-en-1-ol]	30
O=C(NCCCN1CCS(=O)(=O)CC1)c1cnccc1Nc1nc(-c2ccccn2)nn2cccc12 [Example 148, N-[3-(1,1-dioxo-1,4-thiomorpholin-4-yl)propyl]-4-{[2-(pyridin-2-yl)pyrrolo[2,1-f][1,2,4]triazin-4-yl]amino}pyridine-3-carboxamide]	83
COc1cccc(-c2nc(Nc3ccnc(F)c3)c3cccn3n2)n1 [Example 94, 2-fluoro-N-[2-(6-methoxypyridin-2-yl)pyrrolo[2,1-f][1,2,4]triazin-4-yl]pyridin-4-amine]	630
CCc1nnc(CNC(=O)c2cnccc2Nc2nc(-c3cccc(C(F)F)n3)nn3cccc23)o1 [Example 182, 4-({2-[6-(difluoromethyl)pyridin-2-yl]pyrrolo[2,1-f][1,2,4]triazin-4-yl}amino)-N-[(5-ethyl-1,3,4-oxadiazol-2-yl)methyl]pyridine-3-carboxamide]	16
FC(F)(F)c1cccc(-c2nc(Nc3ccnc(Cl)c3)c3cccn3n2)n1 [Example 82, 2-chloro-N-{2-[6-(trifluoromethyl)pyridin-2-yl]pyrrolo[2,1-f][1,2,4]triazin-4-yl}pyridin-4-amine]	2700
COc1cccc(-c2nc(Nc3ccnc(NCC(C)(C)O)c3)c3cccn3n2)n1 [Example 133, 1-[(4-{[2-(6-methoxypyridin-2-yl)pyrrolo[2,1-f][1,2,4]triazin-4-yl]amino}pyridin-2-yl)amino]-2-methylpropan-2-ol]	3300
COc1cccc(-c2nc(Nc3ccncc3F)c3cc(NS(=O)(=O)C4CC4)cn3n2)n1 [Example 107, N-{4-[(3-fluoropyridin-4-yl)amino]-2-(6-methoxypyridin-2-yl)pyrrolo[2,1-f][1,2,4]triazin-6-yl}cyclopropanesulfonamide]	81
CNC(=O)c1cc2c(Nc3ccncc3)nc(-c3cccc(C)n3)nn2c1 [Example 220, N-methyl-2-(6-methylpyridin-2-yl)-4-[(pyridin-4-yl)amino]pyrrolo[2,1-f][1,2,4]triazine-6-carboxamide]	11
CC(C)(C)OC(=O)N1CCN(CCNC(=O)c2cnccc2Nc2nc(-c3ccccn3)nn3cccc23)CC1 [Example 145, tert-butyl 4-{2-[(4-{[2-(pyridin-2-yl)pyrrolo[2,1-f][1,2,4]triazin-4-yl]amino}pyridin-3-yl)formamido]ethyl}piperazine-1-carboxylate]	210
O=C(Nc1cc(Nc2nc(-c3cccc(C(F)(F)F)n3)nn3cccc23)ccn1)[C@@H]1CCCN1 [Example 326, (2S)—N-[4-({2-[6-(trifluoromethyl)pyridin-2-yl]pyrrolo[2,1-f][1,2,4]triazin-4-yl}amino)pyridin-2-yl]pyrrolidine-2-carboxamide]	88
Cc1csc(-c2nc(Nc3ccncc3)c3cccn3n2)n1 [Example 88, N-[2-(4-methyl-1,3-thiazol-2-yl)pyrrolo[2,1-f][1,2,4]triazin-4-yl]pyridin-4-amine]	1.5
COc1cccc(-c2nc(Nc3ccnc(Cl)c3)c3cccn3n2)n1 [Example 93, 2-chloro-N-[2-(6-methoxypyridin-2-yl)pyrrolo[2,1-f][1,2,4]triazin-4-yl]pyridin-4-amine]	6600
Fc1cc(Nc2nc(-c3cccc(C(F)(F)F)n3)nn3cccc23)ccn1 [Example 256, 2-fluoro-N-{2-[6-(trifluoromethyl)pyridin-2-yl]pyrrolo[2,1-f][1,2,4]triazin-4-yl}pyridin-4-amine]	250
O=C(CN1CC[C@@H](O)C1)Nc1cc(Nc2nc(-c3cccc(C(F)(F)F)n3)nn3cccc23)ccn1 [Example 327, 2-[(3R)-3-hydroxypyrrolidin-1-yl]-N-[4-({2-[6-(trifluoromethyl)pyridin-2-yl]pyrrolo[2,1-f][1,2,4]triazin-4-yl}amino)pyridin-2-yl]acetamide]	0.3
Fc1cnccc1Nc1nc(-c2ccccn2)nn2ccc(CNCc3ccc4c(c3)OCO4)c12 [Example 294, N-(5-{[(2H-1,3-benzodioxol-5-ylmethyl)amino]methyl}-2-(pyridin-2-yl)pyrrolo[2,1-f][1,2,4]triazin-4-yl)-3-fluoropyridin-4-amine]	0.4

Second part, the compound after the results:

IC50 [nM]	Compound
0.93	O[C@H]1CCN(Cc2ccn3nc(-c4ccccn4)nc(Nc4ccncc4F)c23)C1 [Example 232, (3S)-1-({4-[(3-fluoropyridin-4-yl)amino]-2-(pyridin-2-yl)pyrrolo[2,1-f][1,2,4]triazin-5-yl}methyl)pyrrolidin-3-ol]
6.7	Fc1cnccc1Nc1nc(-c2ccccn2)nn2ccc(CNCC3CCCCN3)c12 (stereo not shown) [Example 265, 3-fluoro-N-(5-{[(piperidin-2-ylmethyl)amino]methyl}-2-(pyridin-2-yl)pyrrolo[2,1-f][1,2,4]triazin-4-yl)pyridin-4-amine]
410	O=C(NC1CCC(F)(F)CC1)c1cnccc1Nc1nc(-c2cccc(C(F)F)n2)nn2cccc12 [Example 201, N-(4,4-difluorocyclohexyl)-4-({2-[6-(difluoromethyl)pyridin-2-yl]pyrrolo[2,1-f][1,2,4]triazin-4-yl}amino)pyridine-3-carboxamide]
5.7	CN1CCN(Cc2ccn3nc(-c4cccc(C(F)F)n4)nc(Nc4ccncc4F)c23)CC1 [Example 115, N-{2-[6-(difluoromethyl)pyridin-2-yl]-5-[(4-methylpiperazin-1-yl)methyl]pyrrolo[2,1-f][1,2,4]triazin-4-yl}-3-fluoropyridin-4-amine]
10	COc1cccc(-c2nc(Nc3ccncc3C(F)F)c3cccn3n2)n1 [Example 15, 3-(difluoromethyl)-N-[2-(6-methoxypyridin-2-yl)pyrrolo[2,1-f][1,2,4]triazin-4-yl]pyridin-4-amine]
0.25	Cc1cccc(-c2nc(Nc3ccncc3F)c3c(CN4CCC(F)(F)CC4)ccn3n2)n1 [Example 76, N-{5-[(4,4-difluoropiperidin-1-yl)methyl]-2-(6-methylpyridin-2-yl)pyrrolo[2,1-f][1,2,4]triazin-4-yl}-3-fluoropyridin-4-amine]
950	COc1cccc(-c2nc(Nc3ccncc3F)c3c(C(O)CN4CCN(C)CC4)ccn3n2)n1 (stereo not shown) [Example 128, 1-{4-[(3-fluoropyridin-4-yl)amino]-2-(6-methoxypyridin-2-yl)pyrrolo[2,1-f][1,2,4]triazin-5-yl}-2-(4-methylpiperazin-1-yl)ethan-1-ol]
140	COc1cccc(-c2nc(Nc3ccncc3F)c3cc(N)cn3n2)n1 [Example 103, 4-N-(3-fluoropyridin-4-yl)-2-(6-methoxypyridin-2-yl)pyrrolo[2,1-f][1,2,4]triazine-4,6-diamine]
13	CN1CCC(OCc2ccn3nc(-c4ccccn4)nc(Nc4ccncc4F)c23)CC1 [Example 328, 3-fluoro-N-(5-{[(1-methylpiperidin-4-yl)oxy]methyl}-2-(pyridin-2-yl)pyrrolo[2,1-f][1,2,4]triazin-4-yl)pyridin-4-amine]
24	CCOCCCNC(=O)c1cnccc1Nc1nc(-c2cccc(C(F)F)n2)nn2cccc12 [Example 172, 4-({2-[6-(difluoromethyl)pyridin-2-yl]pyrrolo[2,1-f][1,2,4]triazin-4-yl}amino)-N-(3-ethoxypropyl)pyridine-3-carboxamide]
3.2	O[C@H]1CC[C@H](NCc2ccn3nc(-c4ccccn4)nc(Nc4ccncc4F)c23)CC1 [Example 288, (1R,4R)-4-[({4-[(3-fluoropyridin-4-yl)amino]-2-(pyridin-2-yl)pyrrolo[2,1-f][1,2,4]triazin-5-yl}methyl)amino]cyclohexan-1-ol]
230	CC(C)(C)OC(=O)CNC(=O)c1cnccc1Nc1nc(-c2cccc(C(F)F)n2)nn2cccc12 [Example 196, tert-butyl 2-{[4-({2-[6-(difluoromethyl)pyridin-2-yl]pyrrolo[2,1-f][1,2,4]triazin-4-yl}amino)pyridin-3-yl]formamido}acetate]
1.1	Fc1cnccc1Nc1nc(-c2cccc(C(F)F)n2)nn2ccc(CN3CCC(F)(F)CC3)c12 [Example 23, N-{2-[6-(difluoromethyl)pyridin-2-yl]-5-[(4,4-difluoropiperidin-1-yl)methyl]pyrrolo[2,1-f][1,2,4]triazin-4-yl}-3-fluoropyridin-4-amine]
10	Fc1cnccc1Nc1nc(-c2ccccn2)nn2ccc(CNCC3CNC3)c12 [Example 266, N-(5-{[(azetidin-3-ylmethyl)amino]methyl}-2-(pyridin-2-yl)pyrrolo[2,1-f][1,2,4]triazin-4-yl)-3-fluoropyridin-4-amine]
